“And” between values parts separate entries of the source, which are not always exact repeats. Identical values can stand only once. Toxic doses and inconclusive results are not listed. The calls were made as follows: active = survival T/C of 150% or more; inactive = T/C below 125% in these data.
Tested on: P388 leukemia ip, CD2F1 mice, survival T/C
Experiment: NCI In Vivo Anticancer Drug Screen. Data for tumor model P388 Leukemia (intraperitoneal) in CD2F1 (CDF1) mice
Settings: endpoint: median survival time, higher = longer survival
Outline: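 Mice carrying the transplanted tumor received test compound or vehicle. Survival was recorded in each group, and the value is the treated-group measurement divided by that of the vehicle-treated control group.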

[1] = dose: 50.0 mg/kg/injection, schedule: Q01DX005 (ip), vehicle: Klucel (hydroxypropylcellulose) (HPC)
[2] = dose: 100.0 mg/kg/injection, schedule: Q01DX005 (ip), vehicle: Klucel (hydroxypropylcellulose) (HPC)
[3] = dose: 60.0 mg/kg/injection, schedule: Q01DX005 (ip), vehicle: saline with Tween-80
[4] = dose: 120.0 mg/kg/injection, schedule: Q01DX005 (ip), vehicle: saline with Tween-80
[5] = dose: 240.0 mg/kg/injection, schedule: Q01DX005 (ip), vehicle: saline with Tween-80
[6] = dose: 50.0 mg/kg/injection, schedule: Q01DX005 (ip), vehicle: saline with Tween-80
[7] = dose: 100.0 mg/kg/injection, schedule: Q01DX005 (ip), vehicle: saline with Tween-80
[8] = dose: 200.0 mg/kg/injection, schedule: Q01DX005 (ip), vehicle: saline with Tween-80
[9] = dose: 200.0 mg/kg/injection, schedule: Q01DX005 (ip), vehicle: Klucel (hydroxypropylcellulose) (HPC)
[10] = dose: 12.5 mg/kg/injection, schedule: Q01DX009 (ip), vehicle: saline with Tween-80
[11] = dose: 25.0 mg/kg/injection, schedule: Q01DX009 (ip), vehicle: saline with Tween-80
[12] = dose: 100.0 mg/kg/injection, schedule: Q04DX003 (ip), vehicle: saline with Tween-80
[13] = dose: 200.0 mg/kg/injection, schedule: Q04DX003 (ip), vehicle: saline with Tween-80
[14] = dose: 400.0 mg/kg/injection, schedule: Q04DX003 (ip), vehicle: saline with Tween-80

Measured: T/C

CCC1(c2ccccc2)CCCC/C1=N/Nc1ccc([N+](=O)[O-])cc1[N+](=O)[O-] (configuration not stated)
inactive: dose: 100.0 mg/kg/injection, schedule: Q04DX003 (ip), vehicle: Klucel (hydroxypropylcellulose) (HPC) 91 % of control | dose: 200.0 mg/kg/injection, schedule: Q04DX003 (ip), vehicle: Klucel (hydroxypropylcellulose) (HPC) 92 % of control | dose: 400.0 mg/kg/injection, schedule: Q04DX003 (ip), vehicle: Klucel (hydroxypropylcellulose) (HPC) 99 % of control

COc1cc([C@H]2OC[C@H]3[C@@H]2CO[C@@H]3c2cc(OC)c3c(c2)OCO3)cc(OC)c1OC
inactive: dose: 9.75 mg/kg/injection, schedule: Q01DX009 (ip), vehicle: saline + Tween-80 + alcohol 93 % of control | dose: 19.5 mg/kg/injection, schedule: Q01DX009 (ip), vehicle: saline + Tween-80 + alcohol 106 % of control | dose: 39.0 mg/kg/injection, schedule: Q01DX009 (ip), vehicle: saline + Tween-80 + alcohol 99 % of control | dose: 78.0 mg/kg/injection, schedule: Q01DX009 (ip), vehicle: saline + Tween-80 + alcohol 107 % of control

[Br][Sn]([CH2]CC[CH2][Sn]([Br])([c]1ccccc1)[c]1ccccc1)([c]1ccccc1)[c]1ccccc1
inactive: [1] 93 % of control | [2] 100 % of control

COc1nc2ccccc2nc1OC
inactive: dose: 100.0 mg/kg/injection, schedule: Q01DX009 (ip), vehicle: saline with Tween-80 97 % of control | dose: 200.0 mg/kg/injection, schedule: Q01DX009 (ip), vehicle: saline with Tween-80 100 % of control | dose: 400.0 mg/kg/injection, schedule: Q01DX009 (ip), vehicle: saline with Tween-80 97 % of control

O=C(O)c1cc2ccccc2c2c3c(ccc12)OCO3
inactive: [3] 95 % of control | [4] 100 % of control | [5] 100 % of control

CCOc1cc2c(cc1C(C)(C)c1ccccc1)OCO2
inactive: [6] 99 % of control | [7] 92 % of control | [8] 96 % of control

CC(=O)OCC1OC(N(CCCl)CCCl)C(OC(C)=O)C(OC(C)=O)C1OC(C)=O (configuration not stated)
active: dose: 10.0 mg/kg/injection, schedule: Q01DX005 (ip), vehicle: distilled water + Tween-80 173 % of control | dose: 20.0 mg/kg/injection, schedule: Q01DX005 (ip), vehicle: distilled water + Tween-80 187 % of control [middle of 4 runs] | dose: 40.0 mg/kg/injection, schedule: Q01DX005 (ip), vehicle: distilled water + Tween-80 199 % of control
inactive: dose: 1.25 mg/kg/injection, schedule: Q01DX005 (ip), vehicle: distilled water + Tween-80 106 % of control | dose: 2.5 mg/kg/injection, schedule: Q01DX005 (ip), vehicle: distilled water + Tween-80 110 % of control and 115 % of control | dose: 5.0 mg/kg/injection, schedule: Q01DX005 (ip), vehicle: distilled water + Tween-80 110 % of control and 117 % of control and 119 % of control

CC(=O)n1oc2c(Br)cc(Br)cc2c1=O
inactive: [1] 116 % of control | [2] 103 % of control | [9] 107 % of control

Fc1ccc(Nc2c3ccccc3nc3ccccc23)cc1
inactive: [10] 110 % of control | [11] 120 % of control

NC(=O)NC1CCCC1
inactive: [12] 100 % of control | [13] 100 % of control | [14] 100 % of control

Cc1ncn[nH]1
inactive: dose: 100.0 mg/kg/injection, schedule: Q01DX009 (ip), vehicle: saline 103 % of control | dose: 200.0 mg/kg/injection, schedule: Q01DX009 (ip), vehicle: saline 106 % of control | dose: 400.0 mg/kg/injection, schedule: Q01DX009 (ip), vehicle: saline 100 % of control

CCCCCC(CN(C)C)C(O)/C=C/c1ccc(Cl)c(Cl)c1 (configuration not stated)
inactive: dose: 12.5 mg/kg/injection, schedule: Q01DX009 (ip), vehicle: saline 109 % of control | dose: 25.0 mg/kg/injection, schedule: Q01DX009 (ip), vehicle: saline 107 % of control

Cc1cc(=O)oc2c1c(=O)[nH]n2-c1ccccc1
inactive: [1] 95 % of control | [2] 87 % of control | [9] 86 % of control

COC(=O)C1c2ccccc2CC(=O)N1NC(C)=O (configuration not stated)
inactive: dose: 50.0 mg/kg/injection, schedule: Q01DX009 (ip), vehicle: Klucel (hydroxypropylcellulose) (HPC) 104 % of control | dose: 100.0 mg/kg/injection, schedule: Q01DX009 (ip), vehicle: Klucel (hydroxypropylcellulose) (HPC) 101 % of control

CC(/C=C/c1ccc(C)cc1)=N\NC(N)=S
inactive: dose: 1.5 mg/kg/injection, schedule: Q01DX005 (ip), vehicle: Klucel + Tween-80 99 % of control | dose: 3.0 mg/kg/injection, schedule: Q01DX005 (ip), vehicle: Klucel + Tween-80 105 % of control | dose: 6.0 mg/kg/injection, schedule: Q01DX005 (ip), vehicle: Klucel + Tween-80 105 % of control | dose: 6.0 mg/kg/injection, schedule: Q01DX005 (ip), vehicle: saline 112 % of control

Cc1[nH]nc(N)c1C(N)=O
inactive: [3] 100 % of control | [4] 99 % of control | [5] 86 % of control

CC1=C(C(=O)Nc2cc(O)ccc2O)C(c2cccc([N+](=O)[O-])c2)C(C(=O)Nc2cc(O)ccc2O)=C(C)N1
inactive: dose: 7.5 mg/kg/injection, schedule: Q01DX005 (ip), vehicle: Klucel (hydroxypropylcellulose) (HPC) 98 % of control | dose: 15.0 mg/kg/injection, schedule: Q01DX005 (ip), vehicle: Klucel (hydroxypropylcellulose) (HPC) 93 % of control | dose: 30.0 mg/kg/injection, schedule: Q01DX005 (ip), vehicle: Klucel (hydroxypropylcellulose) (HPC) 100 % of control

O=C(Cc1cc(-c2ccccc2)nc(=O)[nH]1)c1ccccc1
inactive: dose: 100.0 mg/kg/injection, schedule: Q04DX002 (ip), vehicle: saline with Tween-80 97 % of control | dose: 200.0 mg/kg/injection, schedule: Q04DX002 (ip), vehicle: saline with Tween-80 93 % of control

c1ccc(C2SCC3(CCCCC3)CS2)cc1
inactive: dose: 25.0 mg/kg/injection, schedule: Q01DX005 (ip), vehicle: saline with Tween-80 98 % of control | dose: 50.0 mg/kg/injection, schedule: Q01DX001 (ip), vehicle: saline with Tween-80 101 % of control | [6] 100 % of control | dose: 100.0 mg/kg/injection, schedule: Q01DX001 (ip), vehicle: saline with Tween-80 101 % of control | [7] 100 % of control | dose: 200.0 mg/kg/injection, schedule: Q01DX001 (ip), vehicle: saline with Tween-80 94 % of control | [8] 98 % of control | dose: 400.0 mg/kg/injection, schedule: Q01DX001 (ip), vehicle: saline with Tween-80 88 % of control

COc1ccccc1-n1c(C)nc2c(cnn2C)c1=O
inactive: [1] 100 % of control | [2] 100 % of control | [9] 103 % of control

C=C(C)C1Cc2cc(C(C)=O)c(O)c(OC)c2O1 (configuration not stated)
inactive: dose: 25.0 mg/kg/injection, schedule: Q01DX005 (ip), vehicle: Klucel (hydroxypropylcellulose) (HPC) 101 % of control | [1] 108 % of control | [2] 97 % of control | [9] 99 % of control

OCCN(CCO)Cc1nc2ccc(Cl)cc2[nH]1
inactive: dose: 50.0 mg/kg/injection, schedule: Q01DX005 (ip), vehicle: saline 98 % of control | dose: 100.0 mg/kg/injection, schedule: Q01DX005 (ip), vehicle: saline 91 % of control | dose: 200.0 mg/kg/injection, schedule: Q01DX005 (ip), vehicle: saline 95 % of control

CS[C@@H]1C[C@H]2[C@@H]3CCC4=CC(=O)CC[C@]4(C)[C@H]3CC[C@]2(C)[C@H]1C(C)=O
inactive: [10] 90 % of control | [11] 90 % of control | dose: 50.0 mg/kg/injection, schedule: Q01DX009 (ip), vehicle: saline with Tween-80 100 % of control | [12] 100 % of control | [13] 90 % of control | [14] 100 % of control

CCOP(=O)(Nc1ccc2c(c1)C(=O)c1ccccc1-2)OCC
inactive: [1] 102 % of control | [2] 96 % of control | [9] 96 % of control

CC1=C(C#N)C(=O)NC1(C)O (configuration not stated)
inactive: [1] 98 % of control and 95 % of control | [2] 100 % of control | [9] 100 % of control and 101 % of control

CN1CC(O)c2cc(N=NC(N)=O)c(O)cc21 (configuration not stated)
inactive: [1] 96 % of control | [2] 91 % of control | [9] 108 % of control

— PubChem BioAssay AID330 (DTP/NCI, 2004)
